Data published in PMC8156934, “Photophysical Study and Biological Applications of Synthetic Chalcone-Based Fluorescent Dyes” (Molecules, 2021).
In brackets after ≈: the same amount, converted by molar mass. Like-named read-outs stand apart in the source and are kept apart here.

Assays:
[1] = system: HEK-293; assay: Cell viability MTT assay, normal cells; assay type: cell-based; conditions: Homo sapiens
Protocol: (§1) For fluorescence imaging of living cells, human embryonic kidney 293 (HEK-293, ATCC) and human hepatoma cancer cell (HepG2, ATCC) were cultured in Dulbecco′s Modified Eagle′s Medium (DMEM, HyClone) supplemented with 10% Fetal Bovine Serum (FBS, Gibco, Carlsbad, CA, USA) and 1% Penicillin/Streptomycin Solution 100X (Corning, Corning, NY, USA). All cells were cultured in a humidified incubator at 37 °C with 5% CO2. HEK-293 and HepG2 cells, approximately 1 × 10^4 cells, were seeded on 8-well chambered cover glasses (LabTek, Nunc, Carlsbad, CA, USA) and incubated in complete medium for 24 h. After that, the cells were treated with 5 μM stock solutions of 3a–f in DMSO/cell culture medium containing 10% FBS (0.25% DMSO), for 0, 1, 3, and 6 h. Then, the cells were washed twice with 0.01 M PBS before being visualized under a Laser-Scanning Confocal Microscope (Nikon A1Rsi) with a 60× oil immersion objective lens and living cell workstation with the excitation channel at 488 nm.
(§2) The cells were seeded on a 96-well plate, approximately 7 × 10^3 cells per well, and incubated in complete medium for 24 h. After that, the cells were treated with 0, 1, 5, 10, 20, and 50 μM of chalcones 3a–f, and culturing continued for 24 h. After incubation, the cells were washed three times with 10 mM PBS and treated with […] of methylthiazolyldiphenyl-tetrazolium bromide (MTT reagent, 0.5 mg mL^−1, Sigma-Aldrich, St. Louis, MO, USA) for 2–3 h. After medium removal, DMSO was added to dissolve the formazan product, and cell viability was determined by UV–Vis absorption of the resulting formazan at a wavelength of 560 nm in a microplate reader (BMG Labtech/SPECTROstar Nano, Ortenberg, Germany).

[2] = system: HepG2; assay: Cell viability MTT assay, cancer cells; assay type: cell-based; conditions: Homo sapiens, HepG2, 24 h
Protocol: as §1, §2

[3] = system: S. aureus 1466; assay: Antibacterial activity test (MIC, MBC, growth curve); assay type: cell-based, Staphylococcus aureus; conditions: Staphylococcus aureus
Protocol: (§3) All bacteria strains were obtained from the Thailand Institute of Scientific and Technological Research (TISTR). The antibacterial activity of chalcones 3a–f was determined by the minimal inhibitory concentration (MIC) and the minimal bactericidal concentration (MBC) against the Gram-positive (S. aureus 1466, TISTR 1466) and Gram-negative (E.coli 780, TISTR 780) bacteria. The stocks of chalcones 3a–f (0.60 mg/mL) were serially diluted in Muller–Hinton (MH) broth to obtain concentrations in the range of 250–1000 µM. The solutions of chalcones 3a–f (100 µL) at different concentrations were added in the culture of the tested bacteria (100 µL) at a concentration of 1 × 10^6 colony-forming units/mL (CFU/mL) in MH broth at 37 °C with shaking at 80 rpm. The bacterial numbers were determined by measuring the optical density at 600 nm by a UV–Vis spectrometer. […] To determine the MBC values, the bacterial cultures (10 µL) containing the solutions of chalcones 3a–f at MIC and three higher concentrations were dropped on MH agar plates.

[4] = Photophysical properties (UV–Vis absorption and fluorescence spectra); assay type: physicochemical; conditions: for λabs absorption maximum wavelength / ∆λ stokes shifts (λem − λabs) / λem emission maximum wavelength / Φf fluorescence quantum yields: 2 µM; for λem emission maximum wavelength: excited at the maximum absorption wavelength; for Φf fluorescence quantum yields: n = 3, relative to fluorescein in 0.1 M NaOH
Protocol: All UV–Vis absorption and fluorescence spectra were recorded on a UV–Vis Spectrophotometer (Agilent Technologies Cary 300, Santa Clara, CA, USA) and a Spectrofluorometer (PerkinElmer LS55, Waltham, MA, USA), respectively. In both experiments, the stock solutions of chalcones 3a–f were prepared as 0.5 mM in DMSO. The appropriate amount of the stock solution was added to DMSO, MeOH, and 0.01 M PBS buffer (pH 7.4) with 3% Tween 80 (3 mL) to obtain the final concentration of 2 µM in the testing solutions. For fluorescence experiments, the emission spectra were recorded at the maximum absorbance wavelength of each compound. The fluorescent quantum yields (Φf) were calculated relative to fluorescein in 0.1 M NaOH as a standard (Φf = 0.95).

[5] = Photo-stability test (photobleaching under 250 W blue light); assay type: physicochemical; conditions: DMSO, 250 W blue light (380–500 nm), after 30 min irradiation
Protocol: Chalcones 3a–f were dissolved in DMSO at the final concentration of 1 × 10^−6 M for measuring absorption and emission intensity. Then, 3a–f were irradiated at 250 W (blue-lamp) at a distance of 75 cm. The UV–Visible absorption and fluorescence spectra of the solutions were measured at different time points including 0, 1, 5, 10, 15, 20, and 30 min. Photo-stability was reported in terms of photobleaching absorption and emission (%) calculated from the change of absorption and emission intensity at the absorption and emission maxima before and after irradiation.

[6] = pH effect on fluorescence emission; assay type: physicochemical; conditions: 3% Tween 80
Protocol: Chalcones 3a–f (2 µM) were dissolved in commercial pH 1–12 buffers purchased from Merck (St. Louis, MO, USA) (glycine/NaCl/HCl for pH 1, citric acid/NaOH/HCl for pH 2–6, Na2HPO4/KH2PO4 for pH 7, boric acid/ KCl/NaOH for pH 8–11, Na3PO4/NaOH for pH 12) in the presence of Tween 80 (3% w/w). The actual pH values of the final buffer solutions were measured by a pH meter. The resulting solutions were examined by a Spectrofluorometer (PerkinElmer LS55) at the maximum absorbance wavelength of each compound.

[7] = system: E. coli 780; assay: Antibacterial activity test (MIC, MBC, growth curve); assay type: cell-based, Escherichia coli; conditions: Escherichia coli
Protocol: as §3

[8] = HEK293, HEK-293, 24 h, MTT, read-out: IC50
[9] = S. aureus 1466, mean ± SD of three independent experiments, read-out: MBC
[10] = S. aureus 1466, mean ± SD of three independent experiments, read-out: MIC
[11] = E. coli 780, mean ± SD of three independent experiments, read-out: MBC
[12] = E. coli 780, mean ± SD of three independent experiments, read-out: MIC

SMILES | ε molar absorptivity ([4]; DMSO) [M⁻¹ cm⁻¹] | λabs absorption maximum wavelength ([4]; DMSO) [nm] | ∆λ stokes shifts (λem − λabs) ([4]; DMSO) [nm] | λem emission maximum wavelength ([4]; DMSO) [nm] | Φf fluorescence quantum yields ([4]; DMSO) | ε molar absorptivity ([4]; MeOH) [M⁻¹ cm⁻¹] | λabs absorption maximum wavelength ([4]; MeOH) [nm] | ∆λ stokes shifts (λem − λabs) ([4]; MeOH) [nm] | λem emission maximum wavelength ([4]; MeOH) [nm] | Φf fluorescence quantum yields ([4]; MeOH) | ε molar absorptivity ([4]; PBS (3%w/w tween 80)) [M⁻¹ cm⁻¹] | λabs absorption maximum wavelength ([4]; PBS (3%w/w tween 80)) [nm] | ∆λ stokes shifts (λem − λabs) ([4]; PBS (3%w/w tween 80)) [nm] | λem emission maximum wavelength ([4]; PBS (3%w/w tween 80)) [nm] | Φf fluorescence quantum yields ([4]; PBS (3%w/w tween 80)) | % photobleaching of absorbance [5] [%] | % photobleaching of fluorescence [5] [%] | IC50 [1, 8] [µM] | MBC [3, 9] [µM] | MIC [3, 10] [µM] | also measured
CN(C)c1ccc(/C=C/C(=O)c2ccc(O)cc2)cc1 [3c] | 10000 | 413 | 107 | 520 | 0.61 ± 0.04 | 10000 | 414 | 132 | 546 | 0.017 ± 0.011 | 13000 | 411 | 115 | 526 | 0.11 ± 0.02 | 37 | 50 |  |  |  | IC50 ([1]; HEK293, 24 h): > 100 µM; IC50 [2]: 100 µM; MBC [3]; 1466: 1000 ± 0.01 µM (≈ 267 µg/mL); MIC [3]; 1466: 375 ± 0.01 µM (≈ 100 µg/mL); fluorescence emission ([6]; basic conditions (pH 9–12), 2 µM): reduced emission signals; MBC [7]; 780: 750 ± 0.01 µM (≈ 200 µg/mL); MIC [7]; 780: 250 ± 0.01 µM (≈ 66.8 µg/mL)
COc1ccc(C(=O)/C=C/c2ccc(N(C)C)cc2)cc1 [3a] | 46000 | 417 | 115 | 532 | 0.69 ± 0.04 | 30000 | 417 | 132 | 549 | 0.013 ± 0.006 | 33000 | 416 | 113 | 529 | 0.15 ± 0.02 | 50 | 25 | > 100 | 1000 ± 0.09 (≈ 281 µg/mL) | 375 ± 0.03 (≈ 106 µg/mL) | fluorescence emission ([6]; pH range from 2 to 12, 2 µM): Higher emission peaks; MBC [7, 11]: 750 ± 0.02 µM (≈ 211 µg/mL); MIC [7, 12]: 375 ± 0.01 µM (≈ 106 µg/mL)
CN(C)c1ccc(/C=C/C(=O)c2ccc(N)cc2)cc1 [3f] | 35000 | 412 | 100 | 512 | 0.21 ± 0.03 | 31000 | 414 | 135 | 549 | 0.027 ± 0.011 | 34000 | 412 | 112 | 524 | 0.18 ± 0.02 | 48 | 47 | > 100 | 1000 ± 0.04 (≈ 266 µg/mL) | 375 ± 0.01 (≈ 99.9 µg/mL) | IC50 ([2]; MTT, read-out: IC50): 54 µM; fluorescence emission ([6]; pH range from 2 to 12, 2 µM): Higher emission peaks; MBC [7, 11]: 750 ± 0.01 µM (≈ 200 µg/mL); MIC [7, 12]: 375 ± 0.01 µM (≈ 99.9 µg/mL)
CN(C)c1ccc(/C=C/C(=O)c2cccs2)cc1 [3b] | 31000 | 431 | 129 | 560 | 0.34 ± 0.04 | 29000 | 428 | 139 | 567 | 0.012 ± 0.007 | 37000 | 427 | 93 | 520 | 0.11 ± 0.02 | 26 | 43 | > 100 | 1000 ± 0.01 (≈ 257 µg/mL) | 375 ± 0.01 (≈ 96.5 µg/mL) | IC50 ([2]; MTT, read-out: IC50): 45 µM; fluorescence emission ([6]; pH range from 2 to 12, 2 µM): Higher emission peaks; MBC [7, 11]: 750 ± 0.02 µM (≈ 193 µg/mL); MIC [7, 12]: 250 ± 0.02 µM (≈ 64.3 µg/mL)
